Results reported in ChEMBL document CHEMBL4476875 (2018).

How the values were obtained:
PC-14 = experiment: Cytotoxicity against human PC14 cells assessed as reduction in cell viability incubated for 72 hrs by CCK8 assay; format: functional, cell-based; conditions: PC-14, 72 h
HCT-116 = experiment: Cytotoxicity against human HCT116 cells assessed as reduction in cell viability incubated for 72 hrs by CCK8 assay; format: functional, cell-based; conditions: HCT-116, 72 h
CCD-18Co = experiment: Cytotoxicity against human CCD-18Co cells assessed as reduction in cell viability incubated for 72 hrs by CCK8 assay; format: functional, cell-based
A549 = experiment: Cytotoxicity against human A549 cells assessed as reduction in cell viability incubated for 72 hrs by CCK8 assay; format: functional, cell-based; conditions: A549, 72 h
HFL1 = experiment: Cytotoxicity against human HFL1 cells assessed as reduction in cell viability incubated for 72 hrs by CCK8 assay; format: functional, cell-based; conditions: HFL1, 72 h
[1] = target: Histone-lysine N-methyltransferase SUV39H2 (Homo sapiens, UniProt Q9H5I1); experiment: Inhibition of SUV39H2 (unknown origin) using H3 histone peptide substrate and [3H]-SAM incubated for 3 hrs by microbeta counting based assay
Histone-lysine N-methyltransferase SUV39H2, sequence (Q9H5I1 whole entry): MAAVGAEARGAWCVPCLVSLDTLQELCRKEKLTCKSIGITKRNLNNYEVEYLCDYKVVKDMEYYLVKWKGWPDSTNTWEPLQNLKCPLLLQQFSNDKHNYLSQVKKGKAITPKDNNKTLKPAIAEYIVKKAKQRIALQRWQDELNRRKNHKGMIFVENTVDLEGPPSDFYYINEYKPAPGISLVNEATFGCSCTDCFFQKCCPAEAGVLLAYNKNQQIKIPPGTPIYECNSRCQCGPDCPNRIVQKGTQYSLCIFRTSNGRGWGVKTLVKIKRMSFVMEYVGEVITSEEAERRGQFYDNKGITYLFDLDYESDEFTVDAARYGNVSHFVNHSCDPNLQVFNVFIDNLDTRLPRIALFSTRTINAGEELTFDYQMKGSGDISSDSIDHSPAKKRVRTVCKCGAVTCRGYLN

Compound | IC50 (A549) [µM] | IC50 [1] [µM] | also measured
COc1cc(OC)c(-c2cn3ccc(-c4ccc(C(=O)NC5CCNC5)cc4)cc3n2)cc1Cl (centres undefined) | 5.4 | – | IC50 (PC-14): 4.8 µM; IC50 (HCT-116): 3.7 µM; IC50 (CCD-18Co): 5.2 µM; IC50 (HFL1): 5.4 µM
COc1cc(OCCCN(C)C)c(-c2cn3ccc(N4CCN(C(C)=O)CC4)cc3n2)cc1Cl | 6.9 | – | IC50 (PC-14): 8 µM; IC50 (HCT-116): 7.9 µM; IC50 (CCD-18Co): 8.7 µM; IC50 (HFL1): 4.3 µM
CNCC(=O)Nc1ccc(-c2ccn3cc(-c4cc(Cl)c(OC)cc4OC)nc3c2)cc1 | – | 0.0801 | –
COc1cc(OC)c(-c2cn3ccc(N4CCN(c5cnc(N6CCNCC6)nc5)CC4)cc3n2)cc1Cl | – | 0.0148 | –
COc1cc(OC)c(-c2cn3ccc(N4CCN(Cc5ccc(C#N)nc5)CC4)cc3n2)cc1Cl | 0.96 | – | –
COc1cc(OC)c(-c2cn3ccc(N4CCN(c5cnc(N6CCC(NS(=O)(=O)C7CC7)CC6)nc5)CC4)cc3n2)cc1Cl | 0.67 | – | –
COC(=O)c1ccc(CN[C@H]2CC[C@@H](Nc3ccn4cc(-c5cc(Cl)c(OC)cc5OC)nc4c3)CC2)cc1 | – | 0.0241 | –
COc1cc(OC)c(-c2cn3ccc(N[C@H]4C[C@H]5CC[C@@H](C4)N5CC4CCCCC4)cc3n2)cc1Cl | 0.55 | – | –
COc1cc(OC)c(-c2cn3ccc(NC(=O)[C@@H](N)CCCCN)cc3n2)cc1Cl | 10 | – | IC50 (HCT-116): 10 µM; IC50 (CCD-18Co): 10 µM; IC50 (HFL1): 10 µM
COc1cc(OC)c(-c2cn3ccc(-c4ccc(C(=O)[C@H](C)N)cc4)cc3n2)cc1Cl | – | 0.0995 | –
COc1cc(OC)c(-c2cn3ccc(N[C@H]4CC[C@@H](N(C)Cc5ccccc5F)CC4)cc3n2)cc1Cl | 0.74 | – | –
COc1cc(OC)c(-c2cn3ccc(N[C@H]4CC[C@@H](N(C)Cc5ccc(F)cc5)CC4)cc3n2)cc1Cl | 1.3 | – | –
COCC(=O)N1CCN(c2ccn3cc(-c4cc(Cl)c(OC)cc4OC)nc3c2)C(C)C1 (centres undefined) | – | 0.00188 | –
